What was measured:
[1] = system: larvae of the mustard beetle (Phaedon cochleariae); assay: Phaedon test (spray treatment); type: in vivo; details: application rate 500 g/ha, spray on Chinese cabbage leaf slices, after 7 days
Description: Phaedon Test (Spray Treatment)
Solvent: • 78.0 parts by weight of acetone • 1.5 parts by weight of dimethylformamide
(§1) Emulsifier: 0.5 part by weight of alkylaryl polyglycol ether
(§2) To produce an appropriate active ingredient formulation, 1 part by weight of active ingredient is mixed with the amounts of solvent and emulsifier specified and the concentrate is diluted to the desired concentration with emulsifier-containing water.
Chinese cabbage leaf slices (Brassica pekinensis) are sprayed with an active ingredient formulation of the desired concentration and, after drying, populated with larvae of the mustard beetle (Phaedon cochleariae).
After 7 days, the efficacy in % is determined. 100% means that all beetle larvae were killed; 0% means that no beetle larvae were killed.

[2] = system: green peach aphid (Myzus persicae); assay: Myzus test (spray treatment); type: in vivo; details: 144 h, application rate 500 g/ha, spray on Chinese cabbage leaf slices, after 6 days, read-out: efficacy in % (100% means that all aphids have been killed)
Description: Myzus Test (Spray Treatment)
Solvent: • 78 parts by weight of acetone • 1.5 parts by weight of dimethylformamide
as §1, §2
Chinese cabbage leaf slices (Brassica pekinensis) infested by all stages of the green peach aphid (Myzus persicae) are sprayed with an active ingredient formulation of the desired concentration.
After 6 days, the efficacy in % is determined. 100% means that all aphids have been killed; 0% means that no aphids have been killed.

[3] = Determination of the logP values (formic acid method) by HPLC; type: physicochemical; details: reversed-phase HPLC column (C 18), pH 3.4, HPLC on reversed-phase column (C 18), acidic range (pH 3.4), 55° C.; Table 1; read-out: logP (HCOOH)
Description: 1) Description of Method for Determining the LogP Values (Formic Acid Method)
The logP values reported in the table were determined according to EEC-Directive 79/831 Annex V.A8 by HPLC (High Performance Liquid Chromatography) on a reversed-phase column (C 18). Temperature: 55° C.
Eluents for the determination in the acidic range (pH 3.4):
Eluent A: acetonitrile+1 ml of formic acid/litre. Eluent B: water+0.9 ml of formic acid/litre.
Gradient: from 10% eluent A/90% eluent B to 95% eluent A/5% eluent B in 4.25 min.
The calibration was effected with unbranched alkan-2-ones (with 3 to 16 carbon atoms), whose logP values are known (determination of the logP values on the basis of the retention times by linear interpolation between two successive alkanones). The lambda-max values were determined with reference to the UV spectra from 200 nm to 400 nm in the maxima of the chromatographic signals.

Boophilus microplus = Boophilus microplus test (injection); type: in vivo; details: application rate 20 μg/animal, injected into the abdomen, after 7 days
Description: Boophilus Microplus Test (Injection)
Solvent: dimethyl sulphoxide
To produce an appropriate active ingredient formulation, 10 mg of active ingredient is mixed with 0.5 ml of solvent stated and the concentrate is diluted to the desired concentration with solvent. The active ingredient solution is injected into the abdomen (Boophilus microplus); the animals are transferred to dishes and stored in a climate-controlled room. The action is monitored by the laying of fertile eggs.
After 7 days, the efficacy in % is determined. 100% means that no ticks have laid fertile eggs.

chromatographic logP [3]	Structure (SMILES)	efficacy in % (100% means that all beetle larvae were killed) [1] [%]	pest or weed control at 500 g/ha [2] [%]	efficacy in % (100% means that no ticks have laid fertile eggs) (Boophilus microplus) [%]
1.18	O=C(NCC(F)(F)F)c1cnn(-c2cccnc2)c1 [Example 3, 1-(pyridin-3-yl)-N-(2,2,2-trifluoroethyl)-1H-pyrazole-4-carboxamide]	100	100	–
0.56	O=C(NCCF)c1cnn(-c2cccnc2)c1 [Example 9]	–	100	100
